Data on one molecule can be found in US20160145242A1, “PHENYLIMIDAZOLE DERIVATIVE, AND THERAPEUTIC MEDICINE OR PREVENTIVE MEDICINE FOR INFLAMMATORY DISEASE, ETC” (NIPPON SODA CO., LTD., priority 2013, published 2016).

Where two headings read alike, the source gives them in different places. A value given as a limit tells only on which side of the number the result lay.

A word on the IC50: it is the concentration that inhibits the measured activity by half. Low readings indicate greater potency, high ones weaker potency.

One series deals with T1, CYP2D6 (Homo sapiens, UniProt P10635).
T1 construct: Using human liver microsomes pooled as an enzyme source; from tissue; host or cells: pooled human liver microsomes
The series is described as follows: Cytochrome P450 inhibitory action, CYP2D6 in human liver microsomes. It is filed as in vitro ADME. The note with it: substrate dextromethorphan. Here is the method: (§1) An inhibitory action of the compound of the present invention with respect to CYP2D6 (dextromethorphan was used as a substrate) and CYP3A4 (midazolam and testosterone were used as substrates) which are isozymes of cytochrome P450 (hereinafter, referred to as “CYP”) serving as a major drug-metabolizing enzyme was examined using human liver microsomes.
Using human liver microsomes pooled as an enzyme source, 1.3 mM NADP as a coenzyme, 3.3 mM D-glucose-6-phosphate, and 0.4 U/mL D-glucose-6-phosphate dehydrogenase, the corresponding substrate ([…] dextromethorphan for CYP2D6, 5 μM midazolam or 50 µM testosterone for CYP3A4) and the compound of the present invention were added such that the final concentration became 0.1, 1, 10 μM and then incubated at 37° C. for 10 minutes. The inhibition rate (%) of the compound of the present invention in each concentration was calculated by quantifying metabolites (CYP2D6; dextrorphan, CYP3A4; 1-hydroxymidazolam or 6β hydroxytestosterone) using HPLC-MS/MS and setting the value of the activity of an enzyme when drug was not incorporated therein as 100%. […]
In general terms: Microsomes from liver hold many membrane-bound enzymes, among them those of drug oxidation.

A further series concerns the target T2, CYP3A4 (Homo sapiens, UniProt P08684).
T2 construct: Using human liver microsomes pooled as an enzyme source; from tissue; host or cells: pooled human liver microsomes
Kind of series: Cytochrome P450 inhibitory action, CYP3A4 in human liver microsomes. It is filed as in vitro ADME. The note with it: for inhibition at 10 min, 10 µM: pooled human liver microsomes, read-out: inhibition rate in the shown concentration. The procedure: as §1
Using human liver microsomes pooled as an enzyme source, 1.3 mM NADP as a coenzyme, 3.3 mM D-glucose-6-phosphate, and 0.4 U/mL D-glucose-6-phosphate dehydrogenase, the corresponding substrate ([…] dextromethorphan for CYP2D6, 5 μM midazolam or 50 µM testosterone for CYP3A4) and the compound of the present invention were added such that the final concentration became 0.1, 1, 10 μM and then incubated at 37° C. for 10 minutes. The inhibition rate (%) of the compound of the present invention in each concentration was calculated by quantifying metabolites (CYP2D6; dextrorphan, CYP3A4; 1-hydroxymidazolam or 6β hydroxytestosterone) using HPLC-MS/MS and setting the value of the activity of an enzyme when drug was not incorporated therein as 100%. 50% inhibitory concentration IC50 (μM) was calculated by drawing a straight line between the concentration where the inhibition rate exceeds 50% and the concentration where the inhibition rate is less than 50% in a graph showing a relationship between the inhibition rate and the concentration and interpolating the concentration that becomes 50% inhibition.

In series [1] the target is T3, human platelet-derived thromboxane synthase (Homo sapiens, UniProt P24557).
T3 construct: host or cells: human recombinant cells (so in the source); platelets
T3 sequence (P24557 1-533): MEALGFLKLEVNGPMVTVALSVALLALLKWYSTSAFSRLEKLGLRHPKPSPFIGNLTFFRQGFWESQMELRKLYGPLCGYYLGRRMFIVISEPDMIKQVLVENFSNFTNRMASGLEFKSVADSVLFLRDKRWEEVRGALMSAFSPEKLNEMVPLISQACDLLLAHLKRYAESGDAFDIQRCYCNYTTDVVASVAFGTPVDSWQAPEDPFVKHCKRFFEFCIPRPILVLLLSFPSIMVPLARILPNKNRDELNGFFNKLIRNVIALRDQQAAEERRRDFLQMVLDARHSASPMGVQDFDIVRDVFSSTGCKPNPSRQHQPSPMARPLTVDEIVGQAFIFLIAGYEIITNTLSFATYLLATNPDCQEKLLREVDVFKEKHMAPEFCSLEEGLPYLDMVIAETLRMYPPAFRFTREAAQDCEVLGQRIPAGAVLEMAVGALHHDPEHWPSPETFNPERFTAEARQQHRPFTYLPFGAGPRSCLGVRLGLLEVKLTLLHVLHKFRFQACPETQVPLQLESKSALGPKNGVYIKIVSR
Kind of series: Thromboxane synthase activity inhibitory action. Type of series: biochemical. The note with it: read-out: thromboxane synthase activity inhibition rate. The procedure: The inhibitory action of the compound according to the present invention with respect to the activity of the present enzyme was examined using human platelet-derived thromboxane synthase.
Thromboxane synthase of human recombinant cells was reacted with 2.10 μM of prostaglandin H2 and the amount of thromboxane B2 which was a reaction product was measured by an enzyme-linked immunosorbent assay. 3 μM of the compound according to the present invention dissolved in dimethyl sulfoxide was added to the reaction system and the inhibition rate of thromboxane B2 generation (thromboxane synthase activity inhibition rate) was measured.

Series [2] has as its system human recombinant MAP kinase 1. The series is described as follows: MAP kinase 1 activity inhibitory action. Type of series: biochemical. The note with it: 3 μM. The procedure: The inhibitory action of the compound of the present invention with respect to the activity of the present enzyme was examined using human recombinant MAP kinase 1.
The human recombinant MAP kinase 1 was reacted with 50.0 μg/mL of myelin basic protein and the amount of ^32P phosphorylated myelin basic protein which was a reaction product was measured by a radioactivity measurement method. 3 μM of the compound according to the present invention dissolved in dimethyl sulfoxide was added to the reaction system and the inhibition rate of ^32P phosphorylated myelin basic protein generation (MAP kinase 1 activity inhibition rate) was measured.

T2 sequence (P08684 whole entry): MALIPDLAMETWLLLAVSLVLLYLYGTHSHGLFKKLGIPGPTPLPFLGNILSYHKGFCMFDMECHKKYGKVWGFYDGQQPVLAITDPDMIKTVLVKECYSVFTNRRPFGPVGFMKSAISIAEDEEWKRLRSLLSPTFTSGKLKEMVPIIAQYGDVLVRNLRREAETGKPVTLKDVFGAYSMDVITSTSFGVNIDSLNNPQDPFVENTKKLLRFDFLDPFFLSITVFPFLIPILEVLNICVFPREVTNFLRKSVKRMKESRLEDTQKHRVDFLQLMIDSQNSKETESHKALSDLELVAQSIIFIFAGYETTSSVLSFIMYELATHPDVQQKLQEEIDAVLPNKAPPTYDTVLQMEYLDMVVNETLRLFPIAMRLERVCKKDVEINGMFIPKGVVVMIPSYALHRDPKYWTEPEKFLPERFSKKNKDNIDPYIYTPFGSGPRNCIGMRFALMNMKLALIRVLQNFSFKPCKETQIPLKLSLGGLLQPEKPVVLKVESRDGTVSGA
T1 sequence (P10635 whole entry): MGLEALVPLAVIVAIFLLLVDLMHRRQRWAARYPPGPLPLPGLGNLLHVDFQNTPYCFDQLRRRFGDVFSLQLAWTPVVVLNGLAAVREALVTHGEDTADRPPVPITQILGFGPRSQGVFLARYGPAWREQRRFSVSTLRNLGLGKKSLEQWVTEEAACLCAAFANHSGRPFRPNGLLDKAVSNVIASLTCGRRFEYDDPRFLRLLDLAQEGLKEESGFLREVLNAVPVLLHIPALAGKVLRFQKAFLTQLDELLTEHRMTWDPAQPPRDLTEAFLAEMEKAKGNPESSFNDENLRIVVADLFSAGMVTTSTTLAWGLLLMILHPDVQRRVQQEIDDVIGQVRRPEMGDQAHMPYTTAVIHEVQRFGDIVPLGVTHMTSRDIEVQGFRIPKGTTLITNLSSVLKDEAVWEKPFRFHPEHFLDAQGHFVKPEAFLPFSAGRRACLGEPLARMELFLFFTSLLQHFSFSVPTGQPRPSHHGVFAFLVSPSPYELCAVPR

For `CC(=O)N1CCN(c2ccc(N)c(-n3ccnc3)c2)CC1` [Compound 1-1, 4-acetyl-1-(4-amino-3-imidazole-1-yl-phenyl)piperazine], the inhibition at 10 min, 10 µM on CYP2D6 (pooled human liver microsomes, probe dextromethorphan (printed 5 M), 10 μM, read-out: inhibition rate in the shown concentration) was 36%; at CYP3A4 (probe midazolam (5 μM), substrate midazolam), 28%; on CYP3A4 (probe testosterone (50 M [sic]), substrate testosterone), 6%. The 50% inhibitory concentration (IC50) at CYP2D6, against CYP3A4 (substrate midazolam) and against CYP3A4 (substrate testosterone) was more than 10 µM each time. Also, the inhibition at 3 µM in series [1] is 32%. The “MAP kinase 1 activity inhibition rate” value in series [2] was determined as 13%.
